# Experimental data from patent publication US20190388425A1, “SUBSTITUTED IMIDAZOPYRIDINPYRIMIDINES” (Bayer Pharma Aktiengesellschaft, priority 2017, published 2019).
# Molecular target: T1, human full-length MKNK1 (Homo sapiens, UniProt Q9BUB5, T385D)
# T1 construct: GST (N); purchased Carna Biosciences 02-145; host or cells: insect cells (baculovirus expression system)
# Test: MKNK1 kinase high ATP assay (TR-FRET)
# Format: biochemical
# Conditions: TR-FRET, 2 mM ATP (high ATP), 15 min preincubation with enzyme, 30 min reaction at 22° C.; read-out: MKNK1 IC50
# Outline: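 Full-length human MKNK1 (T385D) preincubated 15 min at 22 °C with compound in HEPES pH 7.5/MgCl2/DTT buffer; reaction with 2 mM ATP (final) and 0.06 μM biotinylated peptide (final), 30 min at 22 °C.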
# T1 sequence (Q9BUB5 1-424 isoform Q9BUB5-2 T344D): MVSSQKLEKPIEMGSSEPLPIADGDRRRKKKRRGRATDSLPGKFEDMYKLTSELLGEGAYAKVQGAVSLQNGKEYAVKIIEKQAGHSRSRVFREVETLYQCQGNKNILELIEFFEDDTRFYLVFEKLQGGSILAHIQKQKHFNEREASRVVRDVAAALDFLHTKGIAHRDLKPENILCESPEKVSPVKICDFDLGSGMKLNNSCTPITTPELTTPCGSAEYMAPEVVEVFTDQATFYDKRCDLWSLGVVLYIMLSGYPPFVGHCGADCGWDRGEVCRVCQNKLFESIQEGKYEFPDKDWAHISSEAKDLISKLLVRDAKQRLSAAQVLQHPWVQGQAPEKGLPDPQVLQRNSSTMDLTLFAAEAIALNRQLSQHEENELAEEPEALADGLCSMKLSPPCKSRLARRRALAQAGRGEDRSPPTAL
row,Structure (SMILES),IC50
1,"Cc1cc(Nc2ncnc3sc4c(c23)CC[C@H](C(=O)N2C[C@H]3C[C@@H]2CO3)C4)c(=O)n2c1C(=O)N[C@]21CC[C@@](O)(C(F)(F)F)CC1 [Example 64, (cis)-4-Hydroxy-8′-methyl-6′-({(7S)-7-[(1R,4R)-2-oxa-5-azabicyclo[2.2.1]hept-5-ylcarbonyl]-5,6,7,8-tetrahydro[1]benzothieno[2,3-d]pyrimidin-4-yl}amino)-4-(trifluoromethyl)-2′H-spiro[cyclohexane-1,3′-imidazo[1,5-a]pyridine]-1′,5′-dione]",3.8 nM
2,"Cc1cc(Nc2ncnc3sc4c(c23)CC[C@H](C(=O)N2CC(C#N)C2)C4)c(=O)n2c1C(=O)NC21CCCC1 [Example 39, 1-({(7S)-4-[(8′-Methyl-1′,5′-dioxo-1′,5′-dihydro-2′H-spiro[cyclopentane-1,3′-imidazo[1,5-a]pyridin]-6′-yl)amino]-5,6,7,8-tetrahydro[1]benzothieno[2,3-d]pyrimidin-7-yl}carbonyl)azetidine-3-carbonitrile]",3.3 nM
3,"Cc1cc(Nc2ncnc3sc4c(c23)CC[C@H](C(N)=O)C4)c(=O)n2c1C(=O)NC21CCCCC1 [Example 17, (7S)-4-[(8′-Methyl-1′,5′-dioxo-1′,5′-dihydro-2′H-spiro[cyclohexane-1,3′-imidazo[1,5-a]pyridin]-6′-yl)amino]-5,6,7,8-tetrahydro[1]benzothieno[2,3-d]pyrimidine-7-carboxamide]",0.5 nM
4,"CC1(C)NC(=O)c2c(Cl)cc(Nc3ncnc4sc5c(c34)CC[C@H](C(=O)N3CCC3)C5)c(=O)n21 [Example 112, 6-{[(7S)-7-(Azetidine-1-carbonyl)-5,6,7,8-tetrahydro[1]benzothieno[2,3-d]pyrimidin-4-yl]amino}-8-chloro-3,3-dimethyl-2,3-dihydroimidazo[1,5-a]pyridine-1,5-dione]",0.2 nM
5,"Cc1cc(Nc2ncnc3sc4c(c23)CC[C@H](C(=O)N(C)C)C4)c(=O)n2c1C(=O)NC21CSC1 [Example 45, (7S)—N,N-Dimethyl-4-[(8-methyl-1,5-dioxo-1,5-dihydro-2H-spiro[imidazo[1,5-a]pyridine-3,3′-thietan]-6-yl)amino]-5,6,7,8-tetrahydro[1]benzothieno[2,3-d]pyrimidine-7-carboxamide]",0.6 nM
6,"CC1(C)NC(=O)c2c(Cl)cc(Nc3ncnc4sc5c(c34)CC[C@H](C(=O)N3C[C@H]4C[C@@H]3CO4)C5)c(=O)n21 [Example 116, 8-Chloro-3,3-dimethyl-6-({(7S)-7-[(1R,4R)-2-oxa-5-azabicyclo[2.2.1]heptane-5-carbonyl]-5,6,7,8-tetrahydro[1]benzothieno[2,3-d]pyrimidin-4-yl}amino)-2,3-dihydroimidazo[1,5-a]pyridine-1,5-dione]",0.3 nM
7,"Cc1cc(Nc2ncnc3sc4c(c23)CCCC4)c(=O)n2c1C(=O)NC21CCCCC1 [Example 43, 8′-Methyl-6′-(5,6,7,8-tetrahydro[1]benzothieno[2,3-d]pyrimidin-4-ylamino)-2′H-spiro[cyclohexane-1,3′-imidazo[1,5-a]pyridine]-1′,5′-dione]",9.9 nM
8,"Cc1cc(Nc2ncnc3sc4c(c23)CC[C@H](C(=O)N2C[C@H]3C[C@@H]2CO3)C4)c(=O)n2c1C(=O)NC21CCCCC1 [Example 8, 8′-Methyl-6′-({(7S)-7-[(1R,4R)-2-oxa-5-azabicyclo[2.2.1]hept-5-ylcarbonyl]-5,6,7,8-tetrahydro[1]benzothieno[2,3-d]pyrimidin-4-yl}amino)-2′H-spiro[cyclohexane-1,3′-imidazo[1,5-a]pyridine]-1′,5′-dione]",0.6 nM
9,"Cc1cc(Nc2ncnc3sc4c(c23)CC[C@H](C(=O)N(C)C)C4)c(=O)n2c1C(=O)NC21CCCC1 [Example 37, (7S)—N,N-Dimethyl-4-[(8′-methyl-1′,5′-dioxo-1′,5′-dihydro-2′H-spiro[cyclopentane-1,3′-imidazo[1,5-a]pyridin]-6′-yl)amino]-5,6,7,8-tetrahydro[1]benzothieno[2,3-d]pyrimidine-7-carboxamide]",0.7 nM
10,"Cc1cc(Nc2ncnc3sc4c(c23)CC[C@H](C(=O)N2CC[C@H](N(C)C)C2)C4)c(=O)n2c1C(=O)NC21CCC1 [Example 24, 6′-{[(7S)-7-{[(3S)-3-(Dimethylamino)pyrrolidin-1-yl]carbonyl}-5,6,7,8-tetrahydro[1]benzothieno[2,3-d]pyrimidin-4-yl]amino}-8′-methyl-2′H-spiro[cyclobutane-1,3′-imidazo[1,5-a]pyridine]-1′,5′-dione]",0.2 nM
11,"N#CC1CN(C(=O)[C@H]2CCc3c(sc4ncnc(Nc5cc(Cl)c6n(c5=O)C5(CCCC5)NC6=O)c34)C2)C1 [Example 88, 1-{(7S)-4-[(8′-Chloro-1′,5′-dioxo-1′,5′-dihydro-2′H-spiro[cyclopentane-1,3′-imidazo[1,5-a]pyridin]-6′-yl)amino]-5,6,7,8-tetrahydro[1]benzothieno[2,3-d]pyrimidine-7-carbonyl}azetidine-3-carbonitrile]",< 0.1 nM
12,"Cc1cc(Nc2ncnc3sc4c(c23)CC[C@H](C(=O)N2C[C@H]3C[C@@H]2CO3)C4)c(=O)n2c1C(=O)NC21CSC1 [Example 51, 8-Methyl-6-({(7S)-7-[(1R,4R)-2-oxa-5-azabicyclo[2.2.1]hept-5-ylcarbonyl]-5,6,7,8-tetrahydro[1]benzothieno[2,3-d]pyrimidin-4-yl}amino)-2H-spiro[imidazo[1,5-a]pyridine-3,3′-thietane]-1,5-dione]",0.4 nM
13,"CN(C)C(=O)[C@H]1CCc2c(sc3ncnc(Nc4cc(Cl)c5n(c4=O)C4(CCC4)NC5=O)c23)C1 [Example 95, (7S)-4-[(8′-Chloro-1′,5′-dioxo-1′,5′-dihydro-2′H-spiro[cyclobutane-1,3′-imidazo[1,5-a]pyridin]-6′-yl)amino]-N,N-dimethyl-5,6,7,8-tetrahydro[1]benzothieno[2,3-d]pyrimidine-7-carboxamide]",1.9 nM
14,"Cc1cc(Nc2ncnc3sc4c(c23)CC[C@H](C(=O)N2CC[C@H](N(C)C)C2)C4)c(=O)n2c1C(=O)NC21CCCCC1 [Example 9, 6′-{[(7S)-7-{[(3S)-3-(Dimethylamino)pyrrolidin-1-yl]carbonyl}-5,6,7,8-tetrahydro[1]benzothieno[2,3-d]pyrimidin-4-yl]amino}-8′-methyl-2′H-spiro[cyclohexane-1,3′-imidazo[1,5-a]pyridine]-1′,5′-dione]",0.1 nM
15,"Cc1cc(Nc2ncnc3sc4c(c23)CC[C@H](C(=O)N2CCC2)C4)c(=O)n2c1C(=O)NC2(C)C [Example 28, 6-{[(7S)-7-(Azetidin-1-ylcarbonyl)-5,6,7,8-tetrahydro[1]benzothieno[2,3-d]pyrimidin-4-yl]amino}-3,3,8-trimethyl-2,3-dihydroimidazo[1,5-a]pyridine-1,5-dione]",1 nM
16,"O=C1NC2(CCC2)n2c1c(Cl)cc(Nc1ncnc3sc4c(c13)CC[C@H](C(=O)N1C[C@H]3C[C@@H]1CO3)C4)c2=O [Example 118, 8′-chloro-6′-({(7S)-7-[(1R,4R)-2-oxa-5-azabicyclo[2.2.1]heptan-5-ylcarbonyl]-5,6,7,8-tetrahydro[1]benzothieno[2,3-d]pyrimidin-4-yl}amino)-2′H-spiro[cyclobutane-1,3′-imidazo[1,5-a]pyridine]-1′,5′-dione]",0.4 nM
17,"Cc1cc(Nc2ncnc3sc4c(c23)CC[C@H](C(=O)N(C)CCN(C)C)C4)c(=O)n2c1C(=O)NC21CCCCC1 [Example 12, (7S)—N-[2-(Dimethylamino)ethyl]-N-methyl-4-[(8′-methyl-1′,5′-dioxo-1′,5′-dihydro-2′H-spiro[cyclohexane-1,3′-imidazo[1,5-a]pyridin]-6′-yl)amino]-5,6,7,8-tetrahydro[1]benzothieno[2,3-d]pyrimidine-7-carboxamide]",0.2 nM
18,"Cc1cc(Nc2ncnc3sc4c(c23)CC[C@H](C(=O)N2CCC2)C4)c(=O)n2c1C(=O)NC21CSC1 [Example 46, 6-{[(7S)-7-(Azetidin-1-ylcarbonyl)-5,6,7,8-tetrahydro[1]benzothieno[2,3-d]pyrimidin-4-yl]amino}-8-methyl-2H-spiro[imidazo[1,5-a]pyridine-3,3′-thietane]-1,5-dione]",0.6 nM
19,"Cc1cc(Nc2ncnc3sc4c(c23)CC[C@H](C(=O)N2CCN(C)[C@@H](C)C2)C4)c(=O)n2c1C(=O)NC21CCCCC1 [Example 14, 6′-{[(7S)-7-{[(3S)-3,4-Dimethylpiperazin-1-yl]carbonyl}-5,6,7,8-tetrahydro[1]benzothieno[2,3-d]pyrimidin-4-yl]amino}-8′-methyl-2′H-spiro[cyclohexane-1,3′-imidazo[1,5-a]pyridine]-1′,5′-dione]",0.8 nM
20,"Cc1cc(Nc2ncnc3sc4c(c23)CC[C@H](C(=O)N2CCN(C)[C@H](C)C2)C4)c(=O)n2c1C(=O)NC2(C)C [Example 32, 6-{[(7S)-7-{[(3R)-3,4-Dimethylpiperazin-1-yl]carbonyl}-5,6,7,8-tetrahydro[1]benzothieno[2,3-d]pyrimidin-4-yl]amino}-3,3,8-trimethyl-2,3-dihydroimidazo[1,5-a]pyridine-1,5-dione]",0.5 nM
21,"Cc1cc(Nc2ncnc3sc4c(c23)CC[C@H](C(=O)N2CC(C#N)C2)C4)c(=O)n2c1C(=O)NC21CCCCC1 [Example 5, 1-({(7S)-4-[(8′-Methyl-1′,5′-dioxo-1′,5′-dihydro-2′H-spiro[cyclohexane-1,3′-imidazo[1,5-a]pyridin]-6′-yl)amino]-5,6,7,8-tetrahydro[1]benzothieno[2,3-d]pyrimidin-7-yl}carbonyl)azetidine-3-carbonitrile]",1.1 nM
22,"Cc1cc(Nc2ncnc3sc4c(c23)CC[C@H](C(=O)O)C4)c(=O)n2c1C(=O)NC21CSC1 [Example 44, (7S)-4-[(8-Methyl-1,5-dioxo-1,5-dihydro-2H-spiro[imidazo[1,5-a]pyridine-3,3′-thietan]-6-yl)amino]-5,6,7,8-tetrahydro[1]benzothieno[2,3-d]pyrimidine-7-carboxylic acid]",17.4 nM
